Measured values published in US11233200B2, “Condensed cyclic compound, composition including the same, and organic light-emitting device including the condensed cyclic compound” (Samsung Electronics Co., Ltd., priority 2018, dated 2022).

Key:
[1] = Measurement of triplet energy level; assay type: physicochemical; settings: spin-coated film of about 50 nm from 3 weight % toluene solution; PL spectrum at 77 K, peak of shortest wavelength
Description: Compound 1 was dissolved in toluene to a concentration of 3 weight % to prepare a solution. The same applied to Compounds 3 and C1 to prepare solutions. The solutions were spin-coated at a rotational speed of 1,600 revolutions per minute (rpm) and dried on a hot plate at a temperature of 120° C. for 15 minutes to obtain films (samples) having a thickness (film thickness after dry) of about 50 nanometers (nm). The samples were cooled to a temperature of 77 Kelvins (K) (−196° C.) and photoluminescence (PL) spectrums were obtained. The triplet energy levels (electron volts, eV) were calculated at the peak values of the shortest wavelengths of the PL spectrums.

[2] = Measurement of solubility; assay type: physicochemical; settings: methyl benzoate (solvent), room temperature, ultrasonic waves
Description: 50 milligrams (mg) of Compound 1 and 500 mg of methyl benzoate (solvent) were added to a colorless sample bottle, ultrasonic waves were irradiated thereon at room temperature for 5 minutes, and the presence or absence of Compound 1 was visually confirmed. […] When Compound 1 remains, a small amount of a solvent was added thereto, the irradiation of ultrasonic waves was repeated, and an amount of the solvent was measured until Compound 1 was completely dissolved. The solubility was measured from the amount of the solvent finally used. The solubility values of Compounds 3 and C1 were calculated in the same manner.

Triplet energy level [1]	Solubility [2]	SMILES
2.81 eV	2 weight %	c1ccc(-c2cccc(-c3cccc(-c4ccc5c(c4)C4(c6ccccc6-5)c5ccccc5-c5ccc(-c6cccc(-c7cccc(-c8ccccc8)c7)c6)cc54)c3)c2)cc1 [Compound C1]
2.96 eV	7 weight %	c1ccc(-c2cccc(-c3cccc(-c4cccc5c4-c4ccccc4C54c5ccccc5-c5c(-c6cccc(-c7cccc(-c8ccccc8)c7)c6)cccc54)c3)c2)cc1 [Compound 1]
2.96 eV	9 weight %	c1ccc(-c2cc(-c3ccccc3)cc(-c3cccc(-c4cccc5c4-c4ccccc4C54c5ccccc5-c5c(-c6cccc(-c7cc(-c8ccccc8)cc(-c8ccccc8)c7)c6)cccc54)c3)c2)cc1 [Compound 3]
2.91 eV	<1 weight %	c1ccc(-c2nc(-c3ccccc3)nc(-c3cccc(-c4cccc(-c5cccc6c5-c5ccccc5C65c6ccccc6-c6c(-c7ccccc7)cccc65)c4)c3)n2)cc1 (centres unmarked) [Compound C2]
